Experimental data from US20070238700A1, “N-PHENYL-1,1,1-TRIFLUOROMETHANESULFONAMIDE HYDRAZONE DERIVATIVE COMPOUNDS AND THEIR USAGE IN CONTROLLING PARASITES” (priority 2006, published 2007).
Where two headings read alike, the source gives them in different places.

What was measured:
Rhipicephalus sanguineus [1] = test: Rapid screening protocol for topical application on brown dog ticks (% mortality); conditions: data from laboratory 2
Protocol: d) Rapid Screening Protocol for Topical Application on Brown Dog Ticks (Rhipicephalus sanguineus)
The aim of the test was to determine the presence of significant acaricidal activity in sample compounds or formulations when applied topically on brown dog ticks. A tick was defined as dead if it gave no apparent response when touched lightly and observed for 1 minute. To assess the experimental compound for acaricidal activity, a single dose level was chosen based on known results from previous experiments with a commercially available active reference compound. Both permethrin and fipronil were employed as reference compounds. The insect species tested was the Brown Dog Tick (Rhipicephalus sanguineus). Mixed sex adult ticks were used for tests. The strain used was cultured by von Berky Veterinary Services, Woody Point, QLD, AU and supplied as unfed adult ticks (mixed sex). Ticks were maintained in controlled conditions (temp. 18°±2° C., humidity 75±5% RH).
Test compounds (formulations or active ingredients) were stored in a refrigerator (5±1° C.) unless otherwise specified. Temperature was maintained at 25±1° C. and the humidity was ambient. The screening dose chosen was higher than that known to kill 90% of insects (LD90) using the reference compound. In the case of topical application of active compounds on adult ticks, the reference compound was fipronil and the dose chosen was 10 μg of active per tick (=10 μg of fipronil/1 μl of acetone). Ticks were each treated on the abdomen with 1 μL of a single dose level of test sample in acetone; ten ticks were treated with solvent only (acetone) in each test. Tests were replicated 4 times (total of 40 ticks treated). Ticks were held in recovery containers maintained under appropriate rearing conditions for 24 hours. Mortality resulting from the treatments was recorded at 24 hours. Pooled 24 hour mortality data were converted to percentages.

Ctenocephalides felis [2] = test: Ctenocephalides felis adulticide assay: C. felis dose response (LC50)
Text: c) Ctenocephalides felis Adulticide Assay: C. felis Dose Response
The purpose of this example was to determine the LC50 when cat fleas were contacted with a glass surface treated with sample compounds or formulations prepared as described above. […] The test species was the cat flea (Ctenocephalides felis). The strain used was obtained from external suppliers as pupae and held in the laboratory under testing conditions until the adults had emerged. Fifteen (15) fleas were used in a minimum of four replicates for each dose level (total of 60 fleas per dose level). The insects were selected to be in the adult life stage, aged between 3 and 7 days post emergence.
The compounds to be tested were dissolved in acetone just prior to testing. Samples of compounds were stored in a refrigerator (5±1° C.) unless otherwise specified. During the mortality testing, the temperature was maintained at 25±1° C. Humidity was maintained at 75±5%. The base (area=159 mm^2) of a 100 mL glass Erlenmeyer (conical) flask provided the treatment surface. Flasks were pretreated with Coatasil™ glass treatment to maximise bio-availability of test compounds by preventing them from binding to the glass surface.
The base of the 100 mL Erlenmeyer flask was treated with 0.5 mL of test sample in acetone and gently swirled. This volume was sufficient to cover the base of the flask. Flasks were left to dry for 24 hours before flea exposure. Adult cat fleas were lightly anaesthetised by cooling and then placed into a sorting chamber, which allowed fleas to revive and jump into the Erlenmeyer flasks. Fifteen (15) adult cat fleas were collected in each flask. The top of the flasks were then covered in Parafilm™ and small holes made to allow gas exchange. A 0.5 mL volume of acetone was applied to the base of an Erlenmeyer flask and the testing proceeded in the same manner described above. Cat fleas in the treatment containers were held under testing conditions for 24 hours. Mortality resulting from the treatments was recorded at 8 and 24 hours.

Ctenocephalides felis [3] = system: Ctenocephalides felis
Method in brief: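 Adult cat fleas (3–7 days post-emergence), 15 per flask in ≥4 replicates, exposed to a dried acetone residue at 1.26 μg/cm^2 on a Coatasil-treated glass flask base. Held at 25±1° C, 75±5% humidity; mortality (immobile or unable to right) scored at 8, 24 and/or 48 h.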

Rhipicephalus sanguineus [4] = test: Dose response protocol for topical application on brown dog ticks (LD50); conditions: 24 h mortality, probit analysis
Protocol: e) Dose response protocol for topical application on brown dog ticks (Rhipicephalus sanguineus): The test determines the level of insecticidal activity of sample compounds or formulations when applied topically on brown dog ticks. Sample compounds were stored prior to use in a freezer (−5±1° C.), unless otherwise specified.
• Mortality: A tick is defined as dead after it gives no apparent response when touched lightly or gently breathed upon, while observed for 30 seconds. • LD50 (Lethal Dose 50): The dose of a topically applied treatment at which 50% of the dog ticks are killed. • Reference compound: To assess an experimental compound for significant acaricidal activity a single dose level is chosen, which is based upon known results from previous experiments using a commercially available active i.e., a reference compound. The reference compound selected is one in common use, and one that has a similar mode of action against the Brown Dog Tick (i.e., the test species), • Recovery container: A recovery container consists of a 500 ml round plastic container measuring 115 mm diameter and 70 mm height, with a tight fitting lid that has 10 small (˜1 mm) holes inserted for air exchange. A 90 mm diameter piece of filter paper was placed on the bottom of the container and moistened with 1 mL of distilled water.
Adult, mixed sex, Brown Dog Ticks (Rhipicephalus sanguineus) were reared as follows: (i) cultured, (ii) transferred unfed, to a testing laboratory, and (iii) then maintained under controlled conditions (i.e., temp. 18°±2° C., humidity 75±5% RH). The ticks used were selected for vigor prior to testing, i.e., capable of actively walking and responsive to being touched or gently breathed upon.
During the testing, the temperature was maintained at 25±1° C. and the humidity was ambient. Seven dose levels (concentrations) of sample compound, in the form of serial dilutions in acetone, were derived from a pilot study and covered a range that produced very low to very high mortality. Groups of ten ticks were treated topically (on the abdomen) with 1 μL of a single dose level of the sample compound. Each test was replicated four times, i.e., employing a total of 40 ticks per dose level of each sample compound. As a control, ten ticks were treated with solvent only (acetone) for each test. Following the treatment, the ticks were held in recovery containers maintained under appropriate rearing conditions for 24 hours. Mortality resulting from the treatments was recorded at 24 hours. […] Press, London (1971).]

SMILES	R. sanguineus Mortality (%) 24 h (Rhipicephalus sanguineus [1]) [%]	C. felis LC50 (Ctenocephalides felis [2]; data from laboratory 1) [ppm]	C. felis Mortality (%) 8 h (Ctenocephalides felis [3]) [%]	C. felis Mortality (%) 24 h (Ctenocephalides felis [3]) [%]	R. sanguineus LD50 (Rhipicephalus sanguineus [4]) [μg/tick]	C. felis LC50 (Ctenocephalides felis [2]) [ppm]
CC(=NN1CC(=O)NC1=O)c1cc(Cl)ccc1NS(=O)(=O)C(F)(F)F [Compound 55]	100	2.5	100	100	1.7	
CC(=NN(C)C(=O)c1ccc(Cl)cc1)c1cc(Cl)ccc1NS(=O)(=O)C(F)(F)F [Compound 59]	100		100	100	1.8	2.9
CCC(=NNC(=O)c1ccc(Cl)cc1)c1cc(Cl)ccc1NS(=O)(=O)C(F)(F)F [Compound 60]	75		60	100	7.1	4.1
CC(=NN(C)C(=O)c1ccc(Cl)cc1Cl)c1cc(Cl)ccc1NS(=O)(=O)C(F)(F)F [Compound 62]	100		100	100	1.6	2.2
CCN(N=C(C)c1cc(Cl)ccc1NS(=O)(=O)C(F)(F)F)c1cc(Cl)cc(Cl)c1 [Compound 70]	100		95	100	4.1	1.8
CCN(N=C(C)c1cc(Cl)ccc1NS(=O)(=O)C(F)(F)F)c1ccc(Cl)c(Cl)c1 [Compound 71]	98		94	100	4.2	2.5
CCCN(N=C(C)c1cc(Cl)ccc1NS(=O)(=O)C(F)(F)F)c1cccc(F)c1 [Compound 72]	100		100	100	3.1	1.5
CCCN(N=C(C)c1cc(Cl)ccc1NS(=O)(=O)C(F)(F)F)c1ccc(C)cc1 [Compound 73]	88		96	100	5.3	2.1
CC(=NN(C)c1cccc(F)c1)c1cc(Cl)ccc1NS(=O)(=O)C(F)(F)F [Compound 74]	100		100	100	2.0	0.76
CCN(N=C(C)c1cc(Cl)ccc1NS(=O)(=O)C(F)(F)F)c1cccc(F)c1 [Compound 76]	98		100	100	2.1	0.42
CCC(=NN(C)C(=O)c1ccc(Cl)cc1)c1cc(Cl)ccc1NS(=O)(=O)C(F)(F)F [Compound 81]	100		100	100	1.49	2.2
CCC(=NN(C)C(=O)c1ccc(Cl)cc1Cl)c1cc(Cl)ccc1NS(=O)(=O)C(F)(F)F [Compound 82]	100		98	100	2.0	2.4
CC(=NN(C)c1ccc(Cl)c(Cl)c1)c1cc(Cl)ccc1NS(=O)(=O)C(F)(F)F [Compound 96]	78		19	99	3.0	2.0
CC(=NN(C)c1cc(Cl)cc(Cl)c1)c1cc(Cl)ccc1NS(=O)(=O)C(F)(F)F [Compound 99]	95		57	100	3.1	1.9
CC(=NN(C)c1cccc(Cl)c1Cl)c1cc(Cl)ccc1NS(=O)(=O)C(F)(F)F [Compound 100]	70		55	100	4.0	1.7
CC(=NN(C)c1ccc(Cl)cc1)c1cc(Cl)ccc1NS(=O)(=O)C(F)(F)F [Compound 105]	95		42	100	1.4	3.0
CC(=NN1CCCC1)c1cc(Cl)ccc1NS(=O)(=O)C(F)(F)F [Compound 116]	93		98	100	0.74	2.66
CCOC(=O)N(CC)N=C(C)c1cc(Cl)ccc1NS(=O)(=O)C(F)(F)F [Compound 125]	95		82	100	0.64	3.62
CCOC(=O)N(C)N=C(C)c1cc(Cl)ccc1NS(=O)(=O)C(F)(F)F [Compound 126]	100	1.84	55	97	0.69	
CCOC(=O)N(CC)N=C(CC)c1cc(Cl)ccc1NS(=O)(=O)C(F)(F)F [Compound 127]	100		100	100	0.54	1.22
CCC(=NN1CCCCC1)c1cc(Cl)ccc1NS(=O)(=O)C(F)(F)F [Compound 129]	98		27	98	0.52	2.82
